In the NIST ThermoML archive (doi:10.1016/j.fluid.2009.04.021):
Numbers after ± are expanded uncertainties.

Conditions: 101.33 kPa, Liquid, Buoyancy - hydrostatic balance

CCCCn1cc[n+](C)c1.F[B-](F)(F)F [1-butyl-3-methylimidazolium tetrafluoroborate]
Conditions | mass density [kg/m3]
281.45 K | 1213.36 ± 10
283.01 K | 1212.07 ± 10
288.41 K | 1207.87 ± 10
288.49 K | 1207.91 ± 10
293.2 K | 1204.14 ± 10
293.49 K | 1204.59 ± 10
298.19 K | 1200.74 ± 10
298.29 K | 1200.69 ± 10
303.04 K | 1197.96 ± 10
303.25 K | 1196.93 ± 10
308.02 K | 1192.73 ± 10
308.14 K | 1193.22 ± 10
312.86 K | 1190.14 ± 10
313.44 K | 1190.35 ± 10
318.17 K | 1187.07 ± 10
318.18 K | 1185.49 ± 10
323.04 K | 1183.15 ± 10
323.06 K | 1184.13 ± 10
327.58 K | 1180.59 ± 10
328.06 K | 1179.55 ± 10
332.87 K | 1175.86 ± 10
333.24 K | 1177.1 ± 10
337.9 K | 1173.42 ± 10
337.97 K | 1172.99 ± 10
342.78 K | 1169.84 ± 10
343.45 K | 1170.2 ± 10
347.5 K | 1166.66 ± 10
348.11 K | 1166.78 ± 10
350.81 K | 1165.3 ± 10
352.74 K | 1163.68 ± 10

CCn1cc[n+](C)c1.F[B-](F)(F)F [1-ethyl-3-methylimidazolium tetrafluoroborate]
Conditions | mass density [kg/m3]
293.41 K | 1287.17 ± 10
298.14 K | 1283.2 ± 10
303.08 K | 1279.88 ± 10
307.94 K | 1275.06 ± 10
313 K | 1271.88 ± 10
318.7 K | 1267.21 ± 10
322.5 K | 1265.05 ± 10
328.4 K | 1260.59 ± 10
332.78 K | 1257.46 ± 10
338.22 K | 1254.07 ± 10
343.05 K | 1251.15 ± 10
347.97 K | 1247.07 ± 10
353.07 K | 1243.6 ± 10

CCCCCCn1cc[n+](C)c1.F[B-](F)(F)F [1-hexyl-3-methylimidazolium tetrafluoroborate]
Conditions | mass density [kg/m3]
283.61 K | 1166.71 ± 10
288.57 K | 1163.12 ± 10
293.48 K | 1159.99 ± 10
298.22 K | 1156.57 ± 10
303.11 K | 1152.91 ± 10
308.16 K | 1149.26 ± 10
313.25 K | 1146.23 ± 10
318.33 K | 1142.64 ± 10
323 K | 1139.57 ± 10
328.63 K | 1135.72 ± 10
333.69 K | 1132.53 ± 10
338.15 K | 1129.41 ± 10
343.04 K | 1126.12 ± 10
348.26 K | 1122.71 ± 10
352.72 K | 1119.68 ± 10
